Data from US20240327450A1, “GLUCOSE DERIVATIVES AND ANTICANCER AGENT USING SAME” (ORBIO CORPORATION, priority 2021, published 2024).

Assays:
[1] = system: mouse insulinoma MIN6 cells; assay: Cell death by Propidium Iodide (PI) signal in MIN6 cells; format: cell-based; conditions: for PI-positive cell death / occurrence of cell death (PI): MIN6 cells at 5 DIV, 1,000 μM; for occurrence of cell death (PI): both 10-minute and 30-minute administrations, vs negative control KRB; for effect on the cells (proportion of dead cells, PI) / cytotoxicity (PI) eliminated by PHT: MIN6 cells at 11 DIV; for effect on the cells (proportion of dead cells, PI) / proportion of dead cells expressed as a PI value / cytotoxicity (PI) eliminated by PHT: 90 minutes; for effect on the cells (proportion of dead cells, PI) / proportion of dead cells expressed as a PI value: vs KRB solution alone; for proportion of dead cells expressed as a PI value: MIN6 cells at 11 DIV, 1,000 μM; for cytotoxicity (PI) eliminated by PHT: compound 1,000 μM, PHT 150 μM
Protocol: (§1) In this experiment, approximately 3,000 MIN6 cells per well were seeded in each well of a 96-well plate. When 5 DIV elapsed from initiation of culture, wells to which E2-ALG was administrated and wells to which E2-ADG was administrated were arranged in the same plate with minimal external disturbance, and administration was performed according to the previously established method (Sasaki, A. et al., Human Cell 2016, 29, 37-45). The E2-ALG was dissolved in a buffer to a concentration of 1,000 μM, administered to the MIN6 cells for 10 or 30 minutes, and then washed out with a buffer solution without the E2-ALG. Meanwhile, the E2-ADG at a concentration of 1,000 μM was administered in the same manner. Carbenoxolone was pre-dissolved in a buffer solution for the purpose of excluding uptake via Hemichannel and Gap junction (Sasaki, A. et al., Human Cell 2016, 29, 37-45).
An extent of occurrence of cell death was assessed using Propidium Iodide (PI), a red dye that is impermeable to a cell membrane. The PI was applied to the MIN6 cells simultaneously with the Calcein-AM. The principle of assessing cell death using PI is as follows. […] However, when the PI nonspecifically enters a cell due to loss of integrity of a cell membrane caused by deterioration of a cell state, the PI binds to a nucleus of the cell, causing the nucleus to emit red fluorescence. A degree of the red fluorescence was quantitatively measured using the CellVoyager CQ1, and image analysis was performed using the software attached to the CQ1. Additionally, the degree of occurrence of cell death was evaluated by statistically comparing the control group with the administration groups or the E2-ALG administration group with the E2-ADG administration group.
Using MIN6 cells with a passage number of 10 or less, E2-ALG or E2-ADG was applied to the MIN6 cells at a concentration of 1,000 μM for 90 minutes at 11 DIV of culture at a time when spheroids with a diameter of 100 μm or more are normally formed. Specifically, approximately 1,000 MIN6 cells per well were seeded in each well of a 96-well plate and E2-ALG was dissolved in a buffer to a concentration of 10 μM or 1,000 μM at 11 DIV, administered to the MIN6 cells for 90 minutes, and then rapidly washed out with a buffer solution without E2-ALG. Similarly, E2-ADG was applied simultaneously to other wells in the same plate. A cell death marker PI was used to statistically compare a control group with administration groups or an E2-ALG administration group with an E2-ADG administration group (FIG. 3).
Whether cell death in MIN6 cells caused by E2-ALG and E2-ADG was via a specific transport mechanism that is inhibited by PHT was analyzed on the same plate. […] The E2-ADG was also tested simultaneously in the same manner on the same plate and both were compared to a control.
(§2) An administration test was performed in the same manner as in Example 5-1, except that M2-ADG (synthesized in Example 1) was used instead of E2-ADG, and M2-ALG (synthesized in Example 3) was used instead of E2-ALG. However, the M2-ADG or the M2-ALG was administered for 30 minutes after 4 DIV from initiation of culture, and a concentration of the M2-ADG or the M2-ALG was 10 μM, 100 μM, or 1,000 μM.

[2] = system: nutritional deficit pancreatic cancer cells; conditions: Onodera, T. et al. J. Biol. Chem. 295, 16678-16690, 2020; cited from earlier work
[3] = system: mouse insulinoma MIN6 cells; assay: Viable cell activity by Calcein-AM fluorescence in MIN6 cells; format: cell-based; conditions: for cellular activity expressed as Calcein intensity: MIN6 cells at 5 DIV, 1,000 μM, vs negative control KRB; for cellular activity as assessed with Calcein: 30 minutes, vs KRB alone
Protocol: Effects of E2-ADG (synthesized in Example 2) and E2-ALG (synthesized in Example 4) on proliferation of cells were examined. A pancreatic beta cell line (insulinoma) MIN6 from mouse pancreas (Miyazaki J. et al., Endocrinology 127: 126-132, 1990) was used as the cells, and all experiments were performed using early passage cells with a passage number of 10 or less.
as §1
A change in cellular activity was assessed using a live cell marker Calcein-AM. The Calcein-AM is permeable to a cell membrane, and after entering a cell, an AM moiety is cleaved by an esterase activity of the cell to produce Calcein which emits green fluorescence. The Calcein-AM was applied to the MIN6 cells according to a conventional method, green fluorescence emitted by the cells was quantitatively measured using a confocal quantitative image cytometer CellVoyager CQ1 (Yokogawa Electric Corporation), and image analysis was performed using software attached to the CQ1. A difference between an E2-ALG administration group and an E2-ADG administration group was statistically compared using Stat View 5.0. The Bonferroni-Dunn test was used for the statistical comparison. A value shown by MIN6 cells at the same time as above in a Krebs-Ringer buffer (KRB) solution without E2-ALG or E2-ADG was used as a negative control.
as §2

colon cancer cells = conditions: Et3PAuCl alone; ACS Med. Chem. Lett. 8: 997-1001, 2017; cited from earlier work
[4] = MIN6 cells at 4 DIV, 10 μM, 30 minutes, vs negative control
[5] = MIN6 cells at 4 DIV, 100 μM, 30 minutes, vs negative control
[6] = MIN6 cells at 4 DIV, 1,000 μM, 30 minutes

CC[PH](CC)(CC)[Au][S][C@H]1O[C@@H](CO)[C@H](O)[C@@H](O)[C@@H]1O [LGG, reference compound]
PI-positive cell death ([1]; 10 minutes): PI-positive cell death comparable to that of the negative control | PI-positive cell death ([1]; 30 minutes): only about as much PI-positive cell death as a negative control group

CC(=O)OC[C@H]1O[C@@H]([S-])[C@H](OC(C)=O)[C@@H](OC(C)=O)[C@@H]1OC(C)=O.CCP(CC)CC.[Au+] [Auranofin]
effect in nutritional deficit pancreatic cancer cells [2]: effective

CCP(CC)CC.OC[C@H]1OC(O)[C@H]([S][Au])[C@@H](O)[C@@H]1O (stereo partly drawn) [Compound E2-ADG]
cellular activity expressed as Calcein intensity ([3]; 10-minute administration): slightly lower than that for the E2-ALG, but there was no statistically significant difference therebetween | cellular activity expressed as Calcein intensity ([3]; 30-minute administration): clear decrease in cellular activity | occurrence of cell death (PI) [1]: no statistically significant difference | effect on the cells (proportion of dead cells, PI) ([1]; 10 μM): larger than that of the negative control (the KRB solution alone) as an average value, but not significantly different | proportion of dead cells expressed as a PI value [1]: significant increase in a proportion of dead cells | cytotoxicity (PI) eliminated by PHT [1]: approximately 75%

CCP(CC)CC.OC[C@@H]1OC(O)[C@@H]([S][Au])[C@H](O)[C@H]1O (stereo partly drawn) [Compound E2-ALG]
cellular activity expressed as Calcein intensity ([3]; 10-minute administration): slightly decreased an average value of the cellular activity compared to the negative control group, but there was no statistically significant difference | cellular activity expressed as Calcein intensity ([3]; 30-minute administration): the cellular activity was clearly decreased compared to the negative control | occurrence of cell death (PI) [1]: no statistically significant difference | effect on the cells (proportion of dead cells, PI) ([1]; 10 μM): larger than that of the negative control (the KRB solution alone) as an average value, but not significantly different | proportion of dead cells expressed as a PI value [1]: significant increase in a proportion of dead cells | cytotoxicity (PI) eliminated by PHT [1]: approximately 75%

CP(C)C.OC[C@H]1OC(O)[C@H]([S][Au])[C@@H](O)[C@@H]1O (stereo partly drawn) [Compound M2-ADG]
cellular activity as assessed with Calcein ([3]; MIN6 cells at 4 DIV, 10 μM): no significant difference in cellular activity | cellular activity as assessed with Calcein ([3]; MIN6 cells at 4 DIV, 100 μM): no significant difference in cellular activity | cellular activity as assessed with Calcein ([3]; MIN6 cells at 4 DIV, 1,000 μM): significant decrease in cellular activity | degree of cell death (PI) [1, 4]: no difference in a degree of cell death | degree of cell death (PI) [1, 5]: an average value increased, but there was still no significant difference from the negative control | degree of cell death (PI) [1, 6]: clear cell death was observed

CP(C)C.OC[C@@H]1OC(O)[C@@H]([S][Au])[C@H](O)[C@H]1O (stereo partly drawn) [Compound M2-ALG]
cellular activity as assessed with Calcein ([3]; MIN6 cells at 4 DIV, 10 μM): no significant difference in cellular activity | cellular activity as assessed with Calcein ([3]; MIN6 cells at 4 DIV, 100 μM): no significant difference in cellular activity | cellular activity as assessed with Calcein ([3]; MIN6 cells at 4 DIV, 1,000 μM): significant decrease in cellular activity | degree of cell death (PI) [1, 4]: no difference in a degree of cell death | degree of cell death (PI) [1, 5]: an average value increased, but there was still no significant difference from the negative control | degree of cell death (PI) [1, 6]: clear cell death was observed

CCP(CC)CC.[Au+].[Cl-] [Et3PAuCl, chloro(triethylphosphine)gold(I)]
cytotoxicity to colon cancer cells (colon cancer cells): cytotoxic

CC[PH](CC)(CC)[Au][S][C@@H]1OC(CO)[C@@H](O)[C@H](O)C1O (stereo partly drawn) [DGG, reference compound]
PI-positive cell death ([1]; 10 minutes): more PI-positive cell death than the negative control | PI-positive cell death ([1]; 30 minutes): distinct PI-positive cell death
